Activity calls are given as the source filed them. How the calls were made is not given here.
Tested on: CCRIS mutagenicity, Ames/micronucleus/aberration tests
Assay: CCRIS mutagenicity studies
[1] = Test System: AMES SALMONELLA TYPHIMURIUM, Strain/Indicator: TA98, Metabolic Activation: NONE, Method: PREINCUBATION
[2] = Test System: AMES SALMONELLA TYPHIMURIUM, Strain/Indicator: TA100, Metabolic Activation: NONE, Method: PREINCUBATION
[3] = Test System: AMES SALMONELLA TYPHIMURIUM, Strain/Indicator: TA1535, Metabolic Activation: NONE, Method: PREINCUBATION
[4] = Test System: AMES SALMONELLA TYPHIMURIUM, Strain/Indicator: TA1535, Metabolic Activation: NONE, Method: STANDARD PLATE

Measured: mutagenic call

Nc1c(Cl)cc(Cl)cc1Cl
inactive: End Point: IN VITRO CHROMOSOMAL ABERRATIONS, Test System: CHL CELLS, Metabolic Activation: NONE inactive; negative | End Point: IN VITRO CHROMOSOMAL ABERRATIONS, Test System: CHL CELLS, Metabolic Activation: RAT, LIVER, S-9, SODIUM PHENOBARBITAL AND 5,6-BENZOFLAVONE inactive; negative | Test System: AMES SALMONELLA TYPHIMURIUM, Strain/Indicator: TA97, Metabolic Activation: HAMSTER, LIVER, S-9, AROCLOR 1254 (10%), Method: PREINCUBATION inactive; negative | Test System: AMES SALMONELLA TYPHIMURIUM, Strain/Indicator: TA97, Metabolic Activation: HAMSTER, LIVER, S-9, AROCLOR 1254 (30%), Method: PREINCUBATION inactive; negative | Test System: AMES SALMONELLA TYPHIMURIUM, Strain/Indicator: TA97, Metabolic Activation: NONE, Method: PREINCUBATION inactive; negative | Test System: AMES SALMONELLA TYPHIMURIUM, Strain/Indicator: TA97, Metabolic Activation: RAT, LIVER, S-9, AROCLOR 1254 (10%), Method: PREINCUBATION inactive; negative | Test System: AMES SALMONELLA TYPHIMURIUM, Strain/Indicator: TA97, Metabolic Activation: RAT, LIVER, S-9, AROCLOR 1254 (30%), Method: PREINCUBATION inactive; negative | Test System: AMES SALMONELLA TYPHIMURIUM, Strain/Indicator: TA98, Metabolic Activation: HAMSTER, LIVER, S-9, AROCLOR 1254 (10%), Method: PREINCUBATION inactive; negative | Test System: AMES SALMONELLA TYPHIMURIUM, Strain/Indicator: TA98, Metabolic Activation: HAMSTER, LIVER, S-9, AROCLOR 1254 (30%), Method: PREINCUBATION inactive; negative | [1] inactive; negative | Test System: AMES SALMONELLA TYPHIMURIUM, Strain/Indicator: TA98, Metabolic Activation: RAT, LIVER, S-9, AROCLOR 1254 (10%), Method: PREINCUBATION inactive; negative | Test System: AMES SALMONELLA TYPHIMURIUM, Strain/Indicator: TA98, Metabolic Activation: RAT, LIVER, S-9, AROCLOR 1254 (30%), Method: PREINCUBATION inactive; negative | Test System: AMES SALMONELLA TYPHIMURIUM, Strain/Indicator: TA100, Metabolic Activation: HAMSTER, LIVER, S-9, AROCLOR 1254 (5%), Method: PREINCUBATION inactive; negative | Test System: AMES SALMONELLA TYPHIMURIUM, Strain/Indicator: TA100, Metabolic Activation: HAMSTER, LIVER, S-9, AROCLOR 1254 (10%), Method: PREINCUBATION inactive; negative | Test System: AMES SALMONELLA TYPHIMURIUM, Strain/Indicator: TA100, Metabolic Activation: HAMSTER, LIVER, S-9, AROCLOR 1254 (30%), Method: PREINCUBATION inactive; negative | [2] inactive; negative | Test System: AMES SALMONELLA TYPHIMURIUM, Strain/Indicator: TA100, Metabolic Activation: RAT, LIVER, S-9, AROCLOR 1254 (5%), Method: PREINCUBATION inactive; negative | Test System: AMES SALMONELLA TYPHIMURIUM, Strain/Indicator: TA100, Metabolic Activation: RAT, LIVER, S-9, AROCLOR 1254 (10%), Method: PREINCUBATION inactive; negative | Test System: AMES SALMONELLA TYPHIMURIUM, Strain/Indicator: TA100, Metabolic Activation: RAT, LIVER, S-9, AROCLOR 1254 (30%), Method: PREINCUBATION inactive; negative | Test System: AMES SALMONELLA TYPHIMURIUM, Strain/Indicator: TA1535, Metabolic Activation: HAMSTER, LIVER, S-9, AROCLOR 1254 (10%), Method: PREINCUBATION inactive; negative | Test System: AMES SALMONELLA TYPHIMURIUM, Strain/Indicator: TA1535, Metabolic Activation: HAMSTER, LIVER, S-9, AROCLOR 1254 (30%), Method: PREINCUBATION inactive; negative | [3] inactive; negative | Test System: AMES SALMONELLA TYPHIMURIUM, Strain/Indicator: TA1535, Metabolic Activation: RAT, LIVER, S-9, AROCLOR 1254 (10%), Method: PREINCUBATION inactive; negative | Test System: AMES SALMONELLA TYPHIMURIUM, Strain/Indicator: TA1535, Metabolic Activation: RAT, LIVER, S-9, AROCLOR 1254 (30%), Method: PREINCUBATION inactive; negative | Test System: UDS RODENT HEPATOCYTES, Strain/Indicator: THY INCORP (NON-S-PHASE), Metabolic Activation: NONE, Method: AUTORADIOGRAPHY inactive; negative

Cc1ccc2c3c(cc4ccccc42)-c2ccccc2-c13
active: Test System: AMES SALMONELLA TYPHIMURIUM, Strain/Indicator: TA100, Metabolic Activation: RAT, LIVER, S-9, AROCLOR 1254 active; positive

COC1=C(OC)C(=O)C(C/C=C(\C)CC/C=C(\C)CC/C=C(\C)CC/C=C(\C)CC/C=C(\C)CC/C=C(\C)CC/C=C(\C)CC/C=C(\C)CC/C=C(\C)CCC=C(C)C)=C(C)C1=O
inactive: [1] inactive; negative | Test System: AMES SALMONELLA TYPHIMURIUM, Strain/Indicator: TA98, Metabolic Activation: RAT, LIVER, S-9, PHENOBARBITAL AND 5,6-BENZOFLAVONE, Method: PREINCUBATION inactive; negative | [2] inactive; negative | Test System: AMES SALMONELLA TYPHIMURIUM, Strain/Indicator: TA100, Metabolic Activation: RAT, LIVER, S-9, PHENOBARBITAL AND 5,6-BENZOFLAVONE, Method: PREINCUBATION inactive; negative | [3] inactive; negative | Test System: AMES SALMONELLA TYPHIMURIUM, Strain/Indicator: TA1535, Metabolic Activation: RAT, LIVER, S-9, PHENOBARBITAL AND 5,6-BENZOFLAVONE, Method: PREINCUBATION inactive; negative | Test System: AMES SALMONELLA TYPHIMURIUM, Strain/Indicator: TA1537, Metabolic Activation: NONE, Method: PREINCUBATION inactive; negative | Test System: AMES SALMONELLA TYPHIMURIUM, Strain/Indicator: TA1537, Metabolic Activation: RAT, LIVER, S-9, PHENOBARBITAL AND 5,6-BENZOFLAVONE, Method: PREINCUBATION inactive; negative | Test System: E. COLI, Strain/Indicator: WP2UVRA, Metabolic Activation: NONE, Method: PREINCUBATION inactive; negative | Test System: E. COLI, Strain/Indicator: WP2UVRA, Metabolic Activation: RAT, LIVER, S-9, PHENOBARBITAL AND 5,6-BENZOFLAVONE, Method: PREINCUBATION inactive; negative

Cc1ccc2nsc(NC(=O)C(Cl)(Cl)Cl)c2c1
inactive: [4] inactive; negative | Test System: AMES SALMONELLA TYPHIMURIUM, Strain/Indicator: TA1535, Metabolic Activation: S-9, Method: STANDARD PLATE inactive; negative | Test System: AMES SALMONELLA TYPHIMURIUM, Strain/Indicator: TA1537, Metabolic Activation: NONE, Method: STANDARD PLATE inactive; negative | Test System: AMES SALMONELLA TYPHIMURIUM, Strain/Indicator: TA1537, Metabolic Activation: S-9, Method: STANDARD PLATE inactive; negative
active: Test System: AMES SALMONELLA TYPHIMURIUM, Strain/Indicator: TA98, Metabolic Activation: NONE, Method: STANDARD PLATE active; positive | Test System: AMES SALMONELLA TYPHIMURIUM, Strain/Indicator: TA98, Metabolic Activation: S-9, Method: STANDARD PLATE active; positive | Test System: AMES SALMONELLA TYPHIMURIUM, Strain/Indicator: TA100, Metabolic Activation: NONE, Method: STANDARD PLATE active; positive | Test System: AMES SALMONELLA TYPHIMURIUM, Strain/Indicator: TA100, Metabolic Activation: S-9, Method: STANDARD PLATE active; positive

COc1c(C=O)c(O)cc2c1C(=O)c1ccccc1C2=O
inactive: [1] inactive; negative | Test System: AMES SALMONELLA TYPHIMURIUM, Strain/Indicator: TA98, Metabolic Activation: RAT, LIVER, S-9, PCB, Method: PREINCUBATION inactive; negative | [2] inactive; negative | Test System: AMES SALMONELLA TYPHIMURIUM, Strain/Indicator: TA100, Metabolic Activation: RAT, LIVER, S-9, PCB, Method: PREINCUBATION inactive; negative

CCOC(=O)CNC(=O)C=[N+]=[N-]
active: [4] active; positive | Test System: UDS RODENT PRIMARY CELLS, Strain/Indicator: THY INCORP (NON-S-PHASE), Metabolic Activation: NONE, Method: AUTORADIOGRAPHY active; positive

COC1=CC(=O)O[C@@H](CCc2ccccc2)C1
inactive: Test System: Mouse lymphoma cells, Strain/Indicator: L5178Y ( tk+/tk-), Metabolic Activation: Human, Liver, S-9, Method: Suspension/plate inactive; negative
